The values below come from patent US7829548B2, “Compounds useful in the treatment of HIV” (Medivir AB, priority 2004, dated 2010).

Data set [1] has as its system HIV-1 isolates from patient plasma samples. The data set is classed as cell-based. The settings on record: for FC value: isolate 4 (K65R+M184V, R211S, K219E); for fold reduction in susceptibility: patient isolates 20 and 21, isolate not specified, compared to wildtype. Here is the method:
The susceptibility of 2′,3′-dideoxy-3′-C-hydroxymethyl-cytosine on HIV-1 isolates from patient plasma samples that bear typical TAM primer rescue mutant resistant genotypes is determined by the commercially available PhenoSense HIV assay (described in Petropoulos, C J et al., (2000) Antimicrob. Agents Chemother. 44:920-928 and performed by ViroLogics, Inc). The assay is performed by amplifying the protease (PR)-RT segment of the HIV pol gene from patient plasma and inserting the amplification products into a modified HIV-1 vector derived from an NL4-3 molecular clone.
Viral stocks are prepared by co-transfecting 293 cell cultures with recombinant viral DNA vector and an expression vector that produces the amphotropic murine leukemia virus envelope proteins. Pseudotyped virus particles are harvested from the transfected cell cultures and are used to infect fresh 293 cell cultures. The recombinant viral DNA contains a luciferase gene cassette within the HIV env gene region and the production of luciferase in target cells is dependent on the completion of one round of virus replication. Drug susceptibility is measured by adding serial concentrations of the compound of the invention and the reference compounds to the cells. Drugs that inhibit virus replication reduce luciferase signal in a dose-dependent manner, providing a quantitative measure of drug susceptibility.

In data set [2] the test system is TAM primer rescue-related resistant HIV isolates. As to the kind of experiment: Drug susceptibility assay in PBMC culture (p24 antigen). The format is cell-based, HIV-1. As to the method:
The antiviral performance of the compound of the invention against additional TAM primer rescue-related resistant HIV isolates was assayed in a PBMC culture. Isolates of HIV-1 were generated and expanded to high titer by co-cultivation of infected patient PBMC with PHA-stimulated donor PBMC (Virology Manual for ACTG HIV Laboratories). The cell-free supernatants were harvested, sequenced, and stored in aliquots at −70° C. for drug susceptibility assays.
In vitro drug susceptibility assays were performed using a modified ACTG/DOD consensus method (Virology Manual for ACTG HIV laboratories). PBMCs were pre-infected with viral stocks for 4 hrs at […] in a humidified atmosphere of 5% CO2 following 4 hr incubation. Infected cells were washed twice in media and pipetted into a microtiter plate with eight serial drug dilutions. Each well contained 100,000 pre-infected PBMC and all drug dilutions were made with cell culture medium. The drug dilutions were chosen to span the 50% inhibitory concentration (IC50) for each single drug. Control wells containing cells and virus were co-incubated on each plate. After a 7-day incubation at […] in a […] atmosphere of 5% CO2, viral growth was determined using a p24 antigen assay on supernatants (Abbott Laboratories, Chicago, USA). The percent inhibition of viral growth compared to the control well, which contained no drug, was calculated and expressed as fold changes (reductions in compounds susceptibility) compared to the control well. The reference compound AZT was run in parallel with the compound of the invention.
A cluster of representative of primer rescue-related mutant virus was selected that harbors the essential feature of primer rescue-related TAM resistant RT mutations. Strains with mutations at position M41L, D67N, K70R, L210W, T215Y/F and K219Q/E in various combinations with or without discriminative mutant M184V were used as indicated in Table 4.

Data set [3] can be described thus: Release of parent compound from prodrugs in pooled human plasma. The data set is classed as in vitro ADME. The following applies: 37C, spiked with 5 uM of the prodrug. Here is the method:
Confirmation that the prodrugs of the invention convert completely to active 2′3′-dideoxy-3′-C-hydromethylcytosine parent compound can be assessed by monitoring the appearance of the parent compound in pooled human plasma, 37C, spiked with 5 uM of the prodrug: […]

Data set [4] addresses T1, HIV-1 RT (Human immunodeficiency virus type 1 group M subtype B, UniProt P04585). Briefly: Residual free 3′-OH primer terminus after pre-incubation, second round of RT-catalysed DNA polymerization. The format is biochemical. The following applies: pre-incubation 10 and 30 minutes; ddCTP compared to the triphosphate of the compound of the invention. As to the method:
The presence of a 3′-hydroxymethyl group in the compound of the invention should, in principle, support incorporation and elongation into the viral nucleic acid catalyzed by HIV-1 RT. A rate-limiting amount of primer-template (16S and 23S ribosomal RNA annealed with an oligo-DNA primer with the sequence of 5′-[…]-3′ (SEQ ID NO:1), custom synthesized by INNOVAGEN) was used. This was pre-incubated with 100 μM (55 times the IC50) 2′-3′-dideoxy-3′-C-hydroxymethylcytidine-triphosphate, 6.0 μM ddC-triphosphate (54 times the IC50 ddCTP), 20 μM deoxycytosine-triphosphate (20 times the Km dCTP) or the control (H2O). At the time points indicated (0, 10, 30, 60, and 120 min), the DNA polymerization process was stopped by inactivation of the RT at 70° C. for 2 min during the first round of DNA polymerization (FIG. 9).
The residual amount of primer-template directly reflects the availability of free 3′-OH primer terminus present after the first round of reaction. […] The availability of free 3′-OH at the primer terminus in the residual amount of primer-template that supported further DNA polymerization was measured and expressed as a function of pre-incubation time (FIG. 10).

Data set [5] addresses T1, HIV-1 RT. As to the kind of experiment: DNA chain termination assay (M13mp18 template, gel autoradiography). The format is biochemical. As to the method: Two deoxycytosine analogues, the conventional NRTI ddC lacking a 3′-hydroxyl group function and the compound of the invention, were subjected to a DNA chain termination assay in which DNA prolongation was conducted with M13mp18 single strand DNA template pre-annealed to an oligo-DNA primer (the forward primer sequence of 5′-[…]-3′ (SEQ ID NO:2) was purchased from Amersham UK. M13mp18 single strand […] was annealed to this oligo-DNA primer giving a final concentration of 1 mg/ml in a buffer containing 10 mM Tris-HCl, pH 7.9 and 100 mM NaCl, and was stored in aliquots at −20° C. DNA polymerization was conducted using this annealed template/primer, HIV-1 RT and natural dNTPs in a reaction incubated at 37° C. for 25 min. The reaction was stopped by the addition of Stop solution containing 95% Formamide, 20 mM EDTA, 0.05% Bromophenol Blue and 0.05% Xylene Cyanol FF (purchased from USB, United States Biochemical via Amersham UK). After denaturing the DNA products, the elongated DNA fragment was electrophoresed on an 8.0% polyacrylamide gel and visualized using autoradiography.
The assay included a negative control (the native dNTP), dual positive ddCTP controls (ddCTP, 8 uM from Sigma Chemical, St. Louis, Miss., USA and ddCTP obtained from a USB sequence kit United States Biochemical via Amersham UK). Various molecule ratios of the triphosphate of the compound of the invention and the natural dNTP were used. After the reaction was conducted as described above, the denatured DNA fragments from each individual reaction was loaded onto an 8.0% polyacrylamide gel in the following order: • 1—Negative control • 2—1st Positive control 8 μM ddCTP (purchased from Sigma) • 3—20 μM inventionTP in 200 μM dNTP • 4—30 μM inventionTP in 300 μM dNTP • 5—40 μM invention TP in 400 μM dNTP • 6—50 μM invention TP in 500 μM dNTP • 7—20 μM invention TP in 80 μM dNTP • 8—40 μM invention TP in 80 μM dNTP • 9—Empty space (no loading) • 10—2nd positive control ddCTP (from USB sequence kit)

For `Nc1nc(NC2CC2)c2ncn([C@H]3C=C[C@@H](CO)C3)c2n1` [ABC, abacavir], in data set [1], the FC value is on record as over 9.0 and the “fold reduction in susceptibility” value was “lost potency”.

As to `Cc1cn([C@H]2C[C@H](N=[N+]=[N-])[C@@H](CO)O2)c(=O)[nH]c1=O` [AZT, zidovudine], the FC value was 1.11 in data set [1], 3.0 in data set [2] (isolate 7086 (T215V)) and “a couple of hundred folds” in data set [2] (primer rescue mutant isolates of Table 4).

As for `Nc1ccn([C@@H]2CS[C@H](CO)O2)c(=O)n1` [Compound 3TC, lamivudine], in data set [1], the FC value is over 200.

For `CC(C)[C@H](N)C(=O)OCC1CC(n2ccc(N)nc2=O)OC1CO` (stereo partly drawn) [Compound 5, 2′-3′-dideoxy-3-C-(L-valyl-oxymethyl)cytosine], in data set [3], the “Concentration of parent uM 5 min” value turned out to be 0.4 µM, the “Concentration of parent uM 20 min” value came to 1.0 µM and the “Concentration of parent uM O min” value stood at 0 µM.

`CC(C)[C@H](N)C(=O)OCC1CC(n2ccc(N)nc2=O)OC1COC(=O)[C@@H](N)C(C)C` (stereo partly drawn) [Compound 8, 5′-O-L-valyl-2′,3′-dideoxy-3′-C-L-valyloxymethylcytosine]: in data set [3], the “Concentration of parent uM 5 min” value stood at 0.2 µM, the “Concentration of parent uM 20 min” value was found to be 0.3 µM and the “Concentration of parent uM O min” value came out at 0.1 µM.

For the compound `CC(C)[C@H](N)C(=O)O[C@@H](C)C(=O)OCC1CC(n2ccc(N)nc2=O)OC1CO` (stereo partly drawn) [Compound 14, 2′,3′-dideoxy-3′-C-[2-S-(L-valyloxy)-propionyl]-oxymethylcytosine], in data set [3], the “Concentration of parent uM 5 min” value was 4.5 µM, the “Concentration of parent uM 20 min” value came out at 4.6 µM and the “Concentration of parent uM O min” value worked out at 4.6 µM.

As to `CCCCC(=O)OCC1CC(n2ccc(N)nc2=O)OC1COC(=O)CCCC` (centres unmarked) [Compound 22, 5′-O-pentanoyl-2′-3′-dideoxy-3-C-pentanoyl-oxymethylcytosine], in data set [3], the “Concentration of parent uM 5 min” value was found to be 4.0 µM, the “Concentration of parent uM 20 min” value stood at 4.5 µM and the “Concentration of parent uM O min” value came to 4.2 µM.

On to `CCCCC(=O)OC[C@H]1C[C@H](n2ccc(N)nc2=O)O[C@@H]1CO` [Compound 24, 2′,3′-dideoxy-3′-C-pentanoyl-oxymethylcytosine], for which, in data set [3], the “Concentration of parent uM 5 min” value was 4.2 µM, the “Concentration of parent uM 20 min” value worked out at 4.4 µM and the “Concentration of parent uM O min” value worked out at 3.9 µM.

As for `Nc1nc(=O)n([C@@H]2CS[C@H](CO)O2)cc1F` [FTC, emtricitabine], in data set [1], the FC value is given as over 40 and the “fold reduction in susceptibility” value was “lost potency”.

As for `C[C@H](Cn1cnc2c(N)ncnc21)OCP(=O)(O)O` [TNF, tenofovir], in data set [1], the “fold reduction in susceptibility” value is “lost potency”.

Consider `Cc1cn([C@H]2C=C[C@@H](CO)O2)c(=O)[nH]c1=O` [d4T, stavudine], for which, in data set [1], the FC value is 0.71 and the “fold reduction in susceptibility” value is “lost potency”.

For the compound `Nc1ccn([C@H]2CC[C@@H](COP(=O)(O)OP(=O)(O)OP(=O)(O)O)O2)c(=O)n1` [ddCTP, ddC-triphosphate, reference compound], the “residual 3-OH primer terminus left to support further DNA prolongation” value at HIV-1 RT [4] was “less than half”. For the same compound, the chain termination pattern entry on HIV-1 RT [5] (lane 2, 1st positive control, 8 μM) was “led to chain termination at the anticipated 2′3′-deoxydeoxycytosine sites”; at HIV-1 RT [5] (lane 10, 2nd positive control (USB sequence kit)) it was “led to chain termination at anticipated 2′3′-deoxydeoxycytosine sites”.

`Nc1ccn([C@H]2C[C@H](CO)[C@@H](COP(=O)(O)OP(=O)(O)OP(=O)(O)O)O2)c(=O)n1` [inventionTP, 2′-3′-dideoxy-3′-C-hydroxymethylcytidine-triphosphate]: the chain termination pattern entry is on record as “led to chain termination at the site after/behind 2′3′-deoxydeoxycytosine site” on HIV-1 RT [5] (lane 3, 20 μM TP / 200 μM dNTP); “led to chain termination at the site after 2′3′-deoxydeoxycytosine site” at HIV-1 RT [5] (lane 4, 30 μM TP / 300 μM dNTP); “lead to chain termination at the site after 2′3′-deoxydeoxycytosine site” at HIV-1 RT [5] (lane 5, 40 μM TP / 400 μM dNTP); “No specific pause (chain termination pattern) was found” on HIV-1 RT [5] (lane 6, 50 μM TP / 500 μM dNTP); “led to a more pronounced chain termination effect at the site after the 2′3′-deoxydeoxycytosine site” on HIV-1 RT [5] (lane 7, 20 μM TP / 80 μM dNTP); “led to a more pronounced chain termination effect at the site after the 2′3′-deoxydeoxycytosine site” on HIV-1 RT [5] (lane 8, 40 μM TP / 80 μM dNTP).
